According to patent publication US9066517B2, “Pest control agents for honeybee parasitic pests, and pest control method for honeybee parasitic pests using the pest control agents” (MEIJI SEIKA PHARMA CO., LTD., priority 2013, dated 2015):

How the values were obtained:
Type in all cases: in vivo
Varroa destructor [1] = test: Test Example 2: pest control test of Varroa destructor, parasitism rate; conditions: for Parasitism rate before treatment (%): rate 10 ppm group, before chemical treatment (baseline); for Parasitism rate at 72 hours after treatment (%) / Change in parasitism rate (%)*: rate 10 ppm; for Parasitism rate at 72 hours after treatment (%): abdomens dipped; for Change in parasitism rate (%)*: {100 − (parasitism rate at 72 hours after treatment/parasitism rate before treatment) × 100}
Source text: (§1) After anesthesized with carbonic acid gas, adults of Apis mellifera collected from a hive were grouped in test cages such that there were 10 to 20 heads per cage. Thereafter, the Apis mellifera were subjected to a chemical treatment by dipping the abdomens into an acetone solution of the compound according to the present invention at predetermined concentrations. After the Apis mellifera air-dried, the recovery of the Apis mellifera from the anesthesia was confirmed. Then, the cages were lidded to leave the Apis mellifera to stand in a thermostatic chamber under dark at 25° C. Note that 50% sucrose water absorbed to absorbent cotton was provided as a bait during the test period.
(§2) The number of Apis mellifera survived at 72 hours after the chemical treatment as well as the numbers of Varroa destructor parasitizing the Apis mellifera before the chemical treatment and at 72 hours after the chemical treatment were examined. The mortality and the parasitism rate were calculated by the following equations. The test was conducted in duplicate. Mortality(%)={((100−survival rate in chemical treated plot)−(100−survival rate in acetone treated plot))/(100−mortalityin acetone treated plot)}×100 Parasitism rate(%)=(number of heads of honeybees parasitized by Varroa destructor/number of honeybees survived)×100

Apis mellifera [2] = test: Test Example 2: mortality of honeybees after dipping the abdomens; conditions: rate 10 ppm, abdomens dipped into acetone solution, adult Apis mellifera
Source text: as §1, §2

Apis mellifera [3] = test: Test Example 1: mortality of honeybees after topical application (micro applicator); conditions: acetone solution applied to abdomens of adult Apis mellifera infected with Varroa destructor, 48 hours after treatment
Procedure: (§3) After anesthesized with carbonic acid gas, adults of Apis mellifera infected with Varroa destructor were subjected to a chemical treatment by applying the abdomens with an acetone solution of the compound according to the present invention at predetermined concentrations using a micro applicator. After the treatment, Apis mellifera were transferred into a plastic case and left to stand in a thermostatic chamber under dark at 25° C. During the test period, 50% sucrose water absorbed to absorbent cotton was provided as a bait.
(§4) Forty eight hours after the chemical treatment, the number of Apis mellifera survived and the number of parasitic Varroa destructor were examined. The mortality of the honeybees and the preventive value against Varroa destructor were calculated by the following equations. Mortality(%)={((100−survival rate in chemical treated plot)−(100−survival rate in acetone treated plot))/(100−mortality in acetone treated plot)}×100 Preventive value={(parasitism rate in untreated plot−parasitism rate in chemical treated plot)/(parasitism rate in untreated plot)}×100

Varroa destructor [4] = test: Test Example 1: pest control test of Varroa destructor, preventive value; conditions: application dose 10 μg, Varroa destructor on adult Apis mellifera, 48 hours after treatment
Procedure: as §3, §4

| Structure (SMILES) | Parasitism rate before treatment (%) (Varroa destructor [1]) | Parasitism rate at 72 hours after treatment (%) (Varroa destructor [1]) | Change in parasitism rate (%)* (Varroa destructor [1]) [%] | Mortality at 72 hours after treatment (%) (Apis mellifera [2]) | Mortality (%) (Apis mellifera [3]; application dose 10 μg) | Preventive value (Varroa destructor [4]) | Mortality (%) (Apis mellifera [3]; application dose 5 μg) |
| --- | --- | --- | --- | --- | --- | --- | --- |
| FC(F)(F)C(=S)N=c1ccccn1Cc1ccc(Cl)nc1 [Compound 1-20, N-[1-((6-chloropyridin-3-yl)methyl)pyridin-2(1H)-ylidene]-2,2,2-trifluoroethanethioamide] | 51 | 23 | −55 | 0 | – | – | – |
| O=C(N=c1ccccn1Cc1ccc(Cl)nc1)C(F)(F)F [Compound P212, N-[1-((6-chloropyridin-3-yl)methyl)pyridin-2(1H)-ylidene]-2,2,2-trifluoroacetamide] | 17 | 10 | −41 | 0 | 0 | 100 | – |
| CC(C)[C@H](Nc1ccc(C(F)(F)F)cc1Cl)C(=O)OC(C#N)c1cccc(Oc2ccccc2)c1 (some centres unmarked) [Fluvalinate, reference compound] | – | – | – | – | – | – | 64 |
